Measurements reported in ChEMBL document CHEMBL4387740, “Discovery of ABT-957: 1-Benzyl-5-oxopyrrolidine-2-carboxamides as selective calpain inhibitors with enhanced metabolic stability” (Bioorg Med Chem Lett, 2019).
The source made the active and inactive calls. The calls are words filed in the database; no cut-off is given here.

Legend:
[1] = Intrinsic clearance in cynomolgus monkey liver cytosol; type: ADME, subcellular, Macaca fascicularis; conditions: read-out: CLH
[2] = target: T1, Calpain-1 catalytic subunit (Homo sapiens, UniProt P07384); assay: Inhibition of Cal1 (unknown origin)
T1 sequence (P07384 whole entry): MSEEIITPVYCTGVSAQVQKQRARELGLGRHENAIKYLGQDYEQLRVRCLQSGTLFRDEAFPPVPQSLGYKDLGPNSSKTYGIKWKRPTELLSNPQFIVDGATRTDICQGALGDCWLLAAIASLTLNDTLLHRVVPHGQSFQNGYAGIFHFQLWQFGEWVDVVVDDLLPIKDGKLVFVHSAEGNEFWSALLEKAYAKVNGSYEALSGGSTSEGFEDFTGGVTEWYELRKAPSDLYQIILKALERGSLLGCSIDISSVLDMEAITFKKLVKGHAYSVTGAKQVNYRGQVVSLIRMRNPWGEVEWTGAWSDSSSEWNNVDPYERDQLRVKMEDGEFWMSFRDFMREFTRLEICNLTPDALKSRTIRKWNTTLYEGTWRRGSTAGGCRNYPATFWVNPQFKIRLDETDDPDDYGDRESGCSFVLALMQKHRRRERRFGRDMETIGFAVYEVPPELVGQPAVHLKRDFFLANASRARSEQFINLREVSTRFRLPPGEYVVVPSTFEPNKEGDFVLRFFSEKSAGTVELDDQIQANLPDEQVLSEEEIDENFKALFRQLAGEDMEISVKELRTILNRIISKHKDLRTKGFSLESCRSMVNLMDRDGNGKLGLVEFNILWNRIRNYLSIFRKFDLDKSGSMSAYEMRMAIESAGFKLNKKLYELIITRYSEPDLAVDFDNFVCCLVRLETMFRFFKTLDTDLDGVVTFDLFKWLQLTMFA

[3] = Selectivity ratio, ratio of Ki for CatS (unknown origin) to Ki for Cal1 (unknown origin); conditions: Homo sapiens
Homo sapiens [4] = species on record: Homo sapiens; assay: Selectivity ratio, ratio of Ki for CatB (unknown origin) to Ki for Cal1 (unknown origin)
Homo sapiens [5] = species on record: Homo sapiens; assay: Selectivity ratio, ratio of Ki for CatL (unknown origin) to Ki for Cal1 (unknown origin)
[6] = Intrinsic clearance in rat liver microsomes; type: ADME, Microsome; conditions: read-out: CLH
[7] = Oral bioavailability in rat; type: ADME, organism-based; conditions: in vivo
Homo sapiens [8] = species on record: Homo sapiens; assay: Selectivity ratio, ratio of Ki for CatK (unknown origin) to Ki for Cal1 (unknown origin)
[9] = Intrinsic clearance in human liver cytosol; type: ADME, subcellular; conditions: read-out: CLH
[10] = Intrinsic clearance in human liver microsomes; type: ADME, Microsome; conditions: read-out: CLH
[11] = Cmax in cynomolgus monkey at 3 mg/kg, po; type: ADME, organism-based, Macaca fascicularis; design: dose 3 mg/kg, route oral; conditions: in vivo
[12] = Elimination half life in Sprague-Dawley rat at 2 mg/kg, iv; type: ADME, organism-based; conditions: in vivo, read-out: beta t1/2 (converted)
[13] = Apparent permeability in human Caco2 cells; type: ADME, cell-based; conditions: Caco-2, read-out: permeability
Hippocampus [14] = assay: Inhibition of amyloid beta oligomer-induced reduction of synaptic transmission in rat hippocampal slices assessed as increase in glutamatergic synaptic strength at 100 nM; type: functional, tissue-based
[15] = Intrinsic clearance in rat liver microsomes; conditions: read-out: CLH
[16] = Volume of distribution at steady state in CD-1 mouse at 2 mg/kg, iv; type: ADME, organism-based; conditions: in vivo, read-out: Vdss
[17] = Elimination half life in cynomolgus monkey at 1 mg/kg, iv; type: ADME, organism-based, Macaca fascicularis; conditions: in vivo, read-out: beta t1/2 (converted)
[18] = Elimination half life in Sprague-Dawley rat at 2 mg/kg, po; type: ADME, organism-based; conditions: in vivo, read-out: beta t1/2 (converted)
[19] = AUC (0 to infinity) in cynomolgus monkey at 3 mg/kg, po; type: ADME, organism-based, Macaca fascicularis; design: dose 3 mg/kg, time infinity, route oral; conditions: in vivo
[20] = Metabolic stability in dog liver microsomes; type: ADME, Canis lupus familiaris, Microsome
[21] = Metabolic stability in dog hepatocytes; type: ADME, cell-based, Canis lupus familiaris, Hepatocyte
[22] = AUC (0 to infinity) in cynomolgus monkey at 1 mg/kg, iv; type: ADME, organism-based, Macaca fascicularis; design: dose 1 mg/kg, time infinity, route intravenous; conditions: in vivo
[23] = AUC (0 to infinity) in Beagle dog at 1 mg/kg, iv; type: ADME, organism-based, Canis lupus familiaris; design: dose 1 mg/kg, time infinity, route intravenous; conditions: in vivo
[24] = Oral bioavailability in cynomolgus monkey at 3 mg/kg; type: ADME, organism-based, Macaca fascicularis; conditions: in vivo
[25] = AUC (0 to infinity) in Sprague-Dawley rat at 2 mg/kg, po; type: ADME, organism-based; design: dose 2 mg/kg, time infinity, route oral; conditions: in vivo
[26] = Cmax in CD-1 mouse at 2 mg/kg, po; type: ADME, organism-based; design: dose 2 mg/kg, route oral; conditions: in vivo
[27] = Cmax in Beagle dog at 1 mg/kg, po; type: ADME, organism-based, Canis lupus familiaris; design: dose 1 mg/kg, route oral; conditions: in vivo
[28] = Elimination half life in CD-1 mouse at 2 mg/kg, po; type: ADME, organism-based; conditions: in vivo, read-out: beta t1/2 (converted)
[29] = Oral bioavailability in Sprague-Dawley rat at 2 mg/kg; type: ADME, organism-based; conditions: in vivo
[30] = Metabolic stability in human liver cytosol assessed as hydroxyamide metabolite formation; type: ADME, subcellular
[31] = Fraction unbound in human plasma; type: ADME, cell-free
[32] = Metabolic stability in rat liver microsomes; type: ADME, Microsome
[33] = Plasma clearance in cynomolgus monkey at 1 mg/kg, iv; type: ADME, organism-based, Macaca fascicularis
[34] = AUC (0 to infinity) in Sprague-Dawley rat at 2 mg/kg, iv; type: ADME, organism-based; design: dose 2 mg/kg, time infinity, route intravenous; conditions: in vivo
[35] = Metabolic stability in human hepatocytes; type: ADME, cell-based, Hepatocyte
Hippocampus [36] = assay: Inhibition of NMDA-induced spectrin degradation in rat hippocampal slices; type: functional, tissue-based
[37] = AUC (0 to infinity) in CD-1 mouse at 2 mg/kg, po; type: ADME, organism-based; design: dose 2 mg/kg, route oral, time infinity; conditions: in vivo
BCRP (ABCG2) = target: T2, BCRP (ABCG2) (Homo sapiens, UniProt Q9UNQ0); assay: Substrate activity at BCRP (unknown origin) expressed in MDCK2 cells assessed as efflux ratio of permeability across basolateral to apical over apical to basolateral side; type: ADME, cell-based
T2 sequence (Q9UNQ0 whole entry): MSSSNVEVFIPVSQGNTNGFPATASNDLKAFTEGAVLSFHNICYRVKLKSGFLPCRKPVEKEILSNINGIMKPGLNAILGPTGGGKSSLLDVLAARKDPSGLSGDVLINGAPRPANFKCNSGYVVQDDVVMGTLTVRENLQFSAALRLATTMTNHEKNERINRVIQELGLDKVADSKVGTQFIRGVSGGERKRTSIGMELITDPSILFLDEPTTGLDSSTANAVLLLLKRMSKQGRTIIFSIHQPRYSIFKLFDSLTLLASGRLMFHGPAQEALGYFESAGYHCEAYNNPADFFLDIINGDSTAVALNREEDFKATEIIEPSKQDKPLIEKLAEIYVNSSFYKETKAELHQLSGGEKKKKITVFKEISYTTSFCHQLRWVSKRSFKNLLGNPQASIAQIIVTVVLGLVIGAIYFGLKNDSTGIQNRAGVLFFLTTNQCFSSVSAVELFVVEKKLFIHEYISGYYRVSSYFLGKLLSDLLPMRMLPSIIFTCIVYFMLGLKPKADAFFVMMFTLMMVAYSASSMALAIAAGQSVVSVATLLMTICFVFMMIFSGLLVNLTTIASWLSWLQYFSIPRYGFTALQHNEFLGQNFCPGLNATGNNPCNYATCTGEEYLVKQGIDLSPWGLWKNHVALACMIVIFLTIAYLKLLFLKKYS

[38] = Plasma clearance in CD-1 mouse at 2 mg/kg, iv; type: ADME, organism-based
[39] = Elimination half life in Beagle dog at 1 mg/kg, iv; type: ADME, organism-based, Canis lupus familiaris; conditions: in vivo, read-out: beta t1/2 (converted)
[40] = Elimination half life in cynomolgus monkey at 3 mg/kg, po; type: ADME, organism-based, Macaca fascicularis; conditions: in vivo, read-out: beta t1/2 (converted)
[41] = AUC (0 to infinity) in Beagle dog at 1 mg/kg, po; type: ADME, organism-based, Canis lupus familiaris; design: dose 1 mg/kg, time infinity, route oral; conditions: in vivo
[42] = Metabolic stability in cynomolgus monkey hepatocytes; type: ADME, cell-based, Macaca fascicularis, Hepatocyte
[43] = Volume of distribution at steady state in Sprague-Dawley rat at 2 mg/kg, iv; type: ADME, organism-based; conditions: in vivo, read-out: Vdss
[44] = Metabolic stability in rat hepatocytes; type: ADME, cell-based, Hepatocyte
[45] = Cmax in Sprague-Dawley rat at 2 mg/kg, po; type: ADME, organism-based; design: dose 2 mg/kg, route oral; conditions: in vivo
[46] = Plasma clearance in Beagle dog at 1 mg/kg, iv; type: ADME, organism-based, Canis lupus familiaris
[47] = Volume of distribution at steady state in cynomolgus monkey at 1 mg/kg, iv; type: ADME, organism-based, Macaca fascicularis; conditions: in vivo, read-out: Vdss
[48] = Volume of distribution at steady state in Beagle dog at 1 mg/kg, iv; type: ADME, organism-based, Canis lupus familiaris; conditions: in vivo, read-out: Vdss
[49] = Elimination half life in Beagle dog at 1 mg/kg, po; type: ADME, organism-based, Canis lupus familiaris; conditions: in vivo, read-out: beta t1/2 (converted)
[50] = Metabolic stability in cynomolgus monkey liver cytosol assessed as hydroxyamide metabolite formation; type: ADME, subcellular, Macaca fascicularis
[51] = Oral bioavailability in Beagle dog at 1 mg/kg; type: ADME, organism-based, Canis lupus familiaris; conditions: in vivo
[52] = Elimination half life in CD-1 mouse at 2 mg/kg, iv; type: ADME, organism-based; conditions: in vivo, read-out: beta t1/2 (converted)
[53] = Metabolic stability in cynomolgus monkey liver microsomes; type: ADME, Macaca fascicularis, Microsome
[54] = Plasma clearance in Sprague-Dawley rat at 2 mg/kg, iv; type: ADME, organism-based
[55] = AUC (0 to infinity) in CD-1 mouse at 2 mg/kg, iv; type: ADME, organism-based; design: dose 2 mg/kg, route intravenous, time infinity; conditions: in vivo
[56] = Metabolic stability in human liver microsomes; type: ADME, Microsome
P-gp (ABCB1) = P-gp (ABCB1) (Homo sapiens, UniProt P08183); assay: Substrate activity at P-gp (unknown origin) expressed in MDCK2 cells assessed as efflux ratio of permeability across basolateral to apical over apical to basolateral side; type: ADME, cell-based; conditions: MDCK-MDR1
P-gp (ABCB1), sequence (P08183 whole entry): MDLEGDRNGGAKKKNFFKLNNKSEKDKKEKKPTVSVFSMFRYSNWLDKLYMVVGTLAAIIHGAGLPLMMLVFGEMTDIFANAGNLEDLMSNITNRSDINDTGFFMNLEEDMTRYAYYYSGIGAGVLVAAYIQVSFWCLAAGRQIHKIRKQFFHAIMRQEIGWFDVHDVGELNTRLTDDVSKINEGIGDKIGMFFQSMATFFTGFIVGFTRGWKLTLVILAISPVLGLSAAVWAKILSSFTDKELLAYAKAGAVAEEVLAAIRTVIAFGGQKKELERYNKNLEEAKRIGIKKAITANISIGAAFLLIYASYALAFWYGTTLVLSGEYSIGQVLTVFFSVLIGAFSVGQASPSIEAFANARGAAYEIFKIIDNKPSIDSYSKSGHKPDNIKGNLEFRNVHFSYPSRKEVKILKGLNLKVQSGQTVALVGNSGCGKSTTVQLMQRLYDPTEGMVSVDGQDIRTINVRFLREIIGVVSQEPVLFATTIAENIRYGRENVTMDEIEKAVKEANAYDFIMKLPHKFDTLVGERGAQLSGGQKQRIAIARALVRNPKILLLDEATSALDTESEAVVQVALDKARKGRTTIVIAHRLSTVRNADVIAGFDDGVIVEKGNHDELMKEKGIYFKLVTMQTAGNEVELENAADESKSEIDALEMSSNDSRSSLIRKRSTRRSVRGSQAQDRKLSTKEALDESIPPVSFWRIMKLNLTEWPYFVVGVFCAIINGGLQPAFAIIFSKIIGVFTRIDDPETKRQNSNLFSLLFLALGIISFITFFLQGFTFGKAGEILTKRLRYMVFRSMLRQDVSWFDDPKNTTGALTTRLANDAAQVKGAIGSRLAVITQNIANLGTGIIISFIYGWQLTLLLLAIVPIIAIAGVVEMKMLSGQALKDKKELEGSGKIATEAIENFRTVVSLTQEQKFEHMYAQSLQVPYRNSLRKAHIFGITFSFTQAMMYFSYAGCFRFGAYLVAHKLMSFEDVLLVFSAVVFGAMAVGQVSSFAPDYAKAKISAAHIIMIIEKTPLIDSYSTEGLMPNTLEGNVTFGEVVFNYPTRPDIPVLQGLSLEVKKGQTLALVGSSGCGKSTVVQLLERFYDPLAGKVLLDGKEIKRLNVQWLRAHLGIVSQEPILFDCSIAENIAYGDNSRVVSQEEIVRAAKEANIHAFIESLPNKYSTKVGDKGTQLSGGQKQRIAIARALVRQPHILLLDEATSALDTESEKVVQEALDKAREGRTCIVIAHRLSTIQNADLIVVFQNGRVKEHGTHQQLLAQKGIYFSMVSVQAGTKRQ

[57] = Oral bioavailability in CD-1 mouse at 2 mg/kg; type: ADME, organism-based; conditions: in vivo

SMILES: NC(=O)C(=O)C(Cc1ccccc1)NC(=O)[C@H]1CCC(=O)N1Cc1ccccc1 (mixture of isomers)
- microsomal CLint [1]: 185 µL/min/mg
- Ki [2]: 39 nM
- Selectivity ratio [3]: 103
- Selectivity ratio (Homo sapiens [4]): 23
- Selectivity ratio (Homo sapiens [5]): 15
- microsomal CLint [6]: < 23 µL/min/mg
- bioavailability [7]: 45%
- Selectivity ratio (Homo sapiens [8]): 22
- microsomal CLint [9]: > 70 µL/min/mg
- microsomal CLint [10]: 27 µL/min/mg

SMILES: O=C(NC1CC1)C(=O)C(Cc1ccccc1)NC(=O)[C@H]1CCC(=O)N1Cc1ccccc1 (some centres not stated)
- Cmax [11]: 98 ng/mL
- half-life [12]: 6.6 h
- Papp [13]: 9.4 ×10⁻⁶ cm/s
- inhibition (Hippocampus [14]): Active
- microsomal CLint [15]: < 23 µL/min/mg
- Vd [16]: 1 L/kg
- Ki [2]: 130 nM
- half-life [17]: 2.3 h
- Selectivity ratio [3]: > 100
- half-life [18]: 5.1 h
- AUC(0-inf) [19]: 220 ng·h/mL
- Stability [20]: Stable
- Stability [21]: Stable
- AUC(0-inf) [22]: 510 ng·h/mL
- AUC(0-inf) [23]: 1820 ng·h/mL
- bioavailability [24]: 14.3%
- AUC(0-inf) [25]: 1910 ng·h/mL
- Selectivity ratio (Homo sapiens [4]): 42
- Cmax [26]: 2300 ng/mL
- Cmax [27]: 980 ng/mL
- half-life [28]: 5 h
- bioavailability [29]: 99.6%
- Stability [30]: Stable
- fraction unbound [31]: 0.3
- Stability [32]: Stable
- clearance [33]: 33 mL/min/kg
- AUC(0-inf) [34]: 1930 ng·h/mL
- Stability [35]: Stable
- IC50 (Hippocampus [36]): 385 nM
- Selectivity ratio (Homo sapiens [5]): 42
- AUC(0-inf) [37]: 14500 ng·h/mL
- microsomal CLint [6]: < 23 µL/min/mg
- efflux ratio (BCRP (ABCG2)): 0.9
- clearance [38]: 2.17 mL/min/kg
- half-life [39]: 1.7 h
- half-life [40]: 1.3 h
- AUC(0-inf) [41]: 1510 ng·h/mL
- Stability [42]: Stable
- Vd [43]: 3.4 L/kg
- Stability [44]: Stable
- Cmax [45]: 530 ng/mL
- clearance [46]: 10.2 mL/min/kg
- Vd [47]: 1.8 L/kg
- Vd [48]: 0.6 L/kg
- half-life [49]: 4.8 h
- Stability [50]: Stable
- bioavailability [51]: 83.1%
- half-life [52]: 6 h
- Stability [53]: Stable
- Selectivity ratio (Homo sapiens [8]): 74
- clearance [54]: 17.3 mL/min/kg
- AUC(0-inf) [55]: 15400 ng·h/mL
- Stability [56]: Stable
- microsomal CLint [9]: < 1 µL/min/mg
- efflux ratio (P-gp (ABCB1)): 10.5
- microsomal CLint [10]: 28 µL/min/mg
- bioavailability [57]: 93.5%
